Measurements: US20170273922A1, “UREA AND BIS-UREA BASED COMPOUNDS AND ANALOGUES THEREOF USEFUL IN THE TREATMENT OF ANDROGEN RECEPTOR MEDIATED DISEASES OR DISORDERS” (THE ROYAL INSTITUTION FOR THE ADVACEMENT OF LEARNING/MCGILL …, priority 2014, published 2017)

Assays:
Assay type in all cases: cell-based
LNCaP cells = experiment: MTT assay (cytotoxicity), LNCaP cells; conditions: 72 h
Method: (§1) MTT assays: LNCaP, 22Rv1, Du145, H1975, A549, MB231 and MCF-7 cells are maintained in RPMI 1640 supplemented with 10% FBS. Cells were seeded at a density of 6-7×10^3 cells per well in 96-well plates. After overnight incubation, cells in fresh RPMI 1640 supplemented with 10% FBS were exposed to DMSO vehicle control or test compounds at designated concentrations for 72 h. Viable cells were evaluated by MTT assays. Experiments were performed in triplicate and repeated at least twice.

22Rv1 cells = experiment: MTT assay (cytotoxicity), 22Rv1 cells; conditions: 72 h
Method: as §1

DU145 cells = experiment: MTT assay (cytotoxicity), DU145 cells; conditions: 72 h
Method: as §1

[1] = MTT assay (cytotoxicity), LNCaP cells; conditions: human, LNCaP cells, 72 h, Table 2.4
Method: as §1

[2] = MTT assay (cytotoxicity), DU145 cells; conditions: human, DU145 cells, Table 2.4
Method: as §1

[3] = MTT assay (cytotoxicity), 22Rv1 cells; conditions: human, 22Rv1 cells, 72 h, Table 2.4
Method: as §1

| Compound | IC50 (LNCaP cells; Table 2.2) [µM] | IC50 (22Rv1 cells; Table 2.2) [µM] | IC50 (DU145 cells; Table 2.2) [µM] | also measured |
| --- | --- | --- | --- | --- |
| N#Cc1ccc(NC(=O)N/C=C/c2cc(C(F)(F)F)ccc2C(F)(F)F)cc1 [Compound 468] | 0.9 | 1.9 | 1.5 |  |
| O=C(N/C=C/c1ccccc1C(F)(F)F)Nc1ccc([N+](=O)[O-])c(C(F)(F)F)c1 [Compound 404] | 9.3 |  | 16.4 |  |
| N#Cc1ccc(NC(=O)N/C=C/c2cc(C(F)(F)F)ccc2C(F)(F)F)cn1 [Compound 480] |  |  |  | IC50 (22Rv1 cells; Table 2.1): 1.8 µM; IC50 (DU145 cells; Table 2.1): 1.7 µM |
| O=C(N/C=C/c1cccc(C(F)(F)F)c1)NCCc1cccc(C(F)(F)F)c1 [Compound 459] |  |  |  | IC50 at 72 h [1]: 7.1 µM; IC50 at 72 h [2]: > 10 µM |
| O=C(N/C=C/c1ccc2c(c1)OCO2)Nc1ccc([N+](=O)[O-])c(C(F)(F)F)c1 [Compound 444] |  |  |  | IC50 at 72 h [1]: 14.6 µM; IC50 at 72 h [3]: 17.5 µM; IC50 at 72 h [2]: 14 µM |
| O=C(N/C=C/c1cc(C(F)(F)F)cc(C(F)(F)F)c1)Nc1cccnc1 [Compound 503] |  |  |  | IC50 (LNCaP cells; Table 2.1): 7.5 µM; IC50 (22Rv1 cells; Table 2.1): 11.3 µM; IC50 (DU145 cells; Table 2.1): 9.5 µM |
| N#Cc1ccc(NC(=O)Nc2ccc([N+](=O)[O-])c(C(F)(F)F)c2)cc1C(F)(F)F [Compound 465] |  |  |  | IC50 (LNCaP cells; LNCaP cells, Table 4.2): 4.1 µM; IC50 (22Rv1 cells; 22Rv1 cells, Table 4.2): 5.2 µM; IC50 (DU145 cells; DU145 cells, Table 4.2): 5.3 µM |
| O=C(N/C=C/c1cccc(C(F)(F)F)c1)Nc1ccc([N+](=O)[O-])cc1 [Compound 449] | 2.1 | 5.3 | 3.9 |  |
| O=C(N/C=C/c1cccc(C(F)(F)F)c1)Nc1ccccc1 [Compound 413] | > 20 |  |  |  |
| N#Cc1ccc(NC(=O)N/C=C/c2cc(C(F)(F)F)cc(C(F)(F)F)c2)nc1 [Compound 483] |  |  |  | IC50 (22Rv1 cells; Table 2.1): 2.3 µM; IC50 (DU145 cells; Table 2.1): 2 µM |
| N#Cc1ccc(NC(=O)N/C=C/c2cc(C(F)(F)F)cc(C(F)(F)F)c2)cc1 [Compound 469] | 1 | 1.9 | 1.7 |  |
| O=C(N/C=C/c1ccc(C(F)(F)F)cc1)Nc1cccc(C(F)(F)F)c1 [Compound 408] | 15.6 |  |  |  |
| O=C(N/C=C/c1ccccc1)Nc1cccc(C(F)(F)F)c1 [Compound 415] | 6.6 | 11 | 14 |  |
| O=C(N/C=C/c1cc(C(F)(F)F)ccc1C(F)(F)F)Nc1ccc([N+](=O)[O-])c(C(F)(F)F)c1 [Compound 436] | 0.5 | 0.8 | 0.7 |  |
| O=C(N/C=C/c1cc(C(F)(F)F)cc(C(F)(F)F)c1)Nc1cnccc1Cl [Compound 533] |  |  |  | IC50 (LNCaP cells; Table 2.1): 2 µM; IC50 (22Rv1 cells; Table 2.1): 10.9 µM; IC50 (DU145 cells; Table 2.1): 6.5 µM |
| O=C(N/C=C/c1cccc(F)c1)Nc1ccc([N+](=O)[O-])c(C(F)(F)F)c1 [Compound 412] | 18.8 | > 20 |  |  |
| O=C(N/C=C/c1cc(C(F)(F)F)cc(C(F)(F)F)c1)Nc1ccc([N+](=O)[O-])c(C(F)(F)F)c1 [Compound 438] | 0.5 | 0.6 | 0.9 |  |
| O=C(N/C=C/c1cccc([N+](=O)[O-])c1)Nc1ccc([N+](=O)[O-])c(C(F)(F)F)c1 [Compound 456] | 2 | 4.1 | 5.2 |  |
| N#Cc1ccc(NC(=O)Nc2cc(C(F)(F)F)cc(C(F)(F)F)c2)cc1Cl [Compound 500] |  |  |  | IC50 (LNCaP cells; LNCaP cells, Table 4.2): 0.2 µM; IC50 (22Rv1 cells; 22Rv1 cells, Table 4.2): 0.4 µM; IC50 (DU145 cells; DU145 cells, Table 4.2): 1.3 µM |
| N#Cc1ccc(NC(=O)N/C=C/c2cccc(F)c2)cc1C(F)(F)F [Compound 433] | 1.9 | 3.2 | 3.9 |  |
| Cc1ccccc1NC(=O)N/C=C/c1cccc(C(F)(F)F)c1 [Compound 445] | 4.1 | 5.2 | 4.8 |  |
| N#Cc1ccc(NC(=O)N/C=C/c2cc(C(F)(F)F)cc(C(F)(F)F)c2)cc1C(F)(F)F [Compound 463] | 1.2 | 1 | 1.2 |  |
| N#Cc1ccc(NC(=O)N/C=C/c2cccc(C(F)(F)F)c2)cn1 [Compound 510] |  |  |  | IC50 (LNCaP cells; Table 2.1): 3.3 µM; IC50 (22Rv1 cells; Table 2.1): 6.6 µM; IC50 (DU145 cells; Table 2.1): 5.7 µM |
| CN(C)c1ccc(NC(=O)N/C=C/c2cccc(C(F)(F)F)c2)cc1 [Compound 435] | 13.1 | > 20 | 20 |  |
| Nc1ccc(NC(=O)N/C=C/c2ccc(C(F)(F)F)cc2)cc1 [Compound 462] | 3.5 | 6.3 | 3.2 |  |
| O=C(N/C=C/c1cc(C(F)(F)F)cc(C(F)(F)F)c1)Nc1ncccn1 [Compound 531] |  |  |  | IC50 (LNCaP cells; Table 2.1): < 1 µM; IC50 (DU145 cells; Table 2.1): < 1 µM |
| COc1cc([N+](=O)[O-])ccc1NC(=O)N/C=C/c1cccc(C(F)(F)F)c1 [Compound 441] | 4.8 | 8.3 | 6.7 |  |
| O=C(N/C=C/c1cccc(C(F)(F)F)c1)Nc1cccc(C(F)(F)F)c1 [Compound 403] | 12.3 |  | > 20 |  |
